How the values were obtained:
[1] = target: CDK9/CycT1 (Homo sapiens, UniProt P50750); assay: ADP-Glo kinase assay on CDK enzymatic activity, CDK9/CycT1; assay type: biochemical; conditions: 10 concentrations from 10 μM, 4-fold, 60 min room temperature
How it was run: (§1)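 Compounds were tested as 10-point, 4-fold dilutions from 10 μM final, preincubated 10 min at room temperature with kinase, then reacted 60 min with CDK tide substrate and ATP. ADP formed was detected by ADP-Glo luminescence; inhibition was normalised to 1 μM AZD4573 and 0.5% DMSO controls and IC50 fitted.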

[2] = target: CDK2/CycA2 (Homo sapiens, UniProt P24941); assay: ADP-Glo kinase assay on CDK enzymatic activity, CDK2/CycA2; assay type: biochemical; conditions: 10 concentrations from 10 μM, 4-fold, 60 min room temperature
How it was run: as §1

[3] = target: CDK3/CycE1 (Homo sapiens, UniProt Q00526); assay: ADP-Glo kinase assay on CDK enzymatic activity, CDK3/CycE1; assay type: biochemical; conditions: 10 concentrations from 10 μM, 4-fold, 60 min room temperature
How it was run: as §1

[4] = target: CDK5/p25NCK (Homo sapiens, UniProt Q00535); assay: ADP-Glo kinase assay on CDK enzymatic activity, CDK5/p25NCK; assay type: biochemical; conditions: 10 concentrations from 10 μM, 4-fold, 60 min room temperature
How it was run: as §1

[5] = system: MV-4-11 (human myelomonocytic leukemia cells); assay: CCK-8 cell proliferation assay, MV-4-11; assay type: cell-based; conditions: MV4-11, 24 h incubation, 11 concentrations from 5000 nM, 3-fold, read-out: MV-4-11 cell proliferation IC50 (class)
Protocol: Test samples: the compounds of the present invention, having structures shown above.
MV-4-11 (human myelomonocytic leukemia cells) and NCI-H929 (human myeloma cells).
The compounds were dissolved in DMSO and diluted 3-fold in the 96-well plate to obtain stock solutions with 11 concentration gradients. Each cell was inoculated into a 96-well plate, and the diluted compound stock solution was added to the 96-well plate to obtain a series of 11 concentration gradients of compound solutions with final concentrations of 5000 nM starting and 3-fold gradient decreasing, wherein the final DMSO content was […]. There was a medium containing 1‰ DMSO in the negative control well. The treated cells were incubated at 37° C. with 5% CO2 and 95% humidity, wherein MV-4-11 were incubated for 24 h and NCI-H929 for 72 h. After incubation was completed, each well was added with 10 μL of CCK-8 reagent, incubated for 1-3 h at room temperature and placed in the microplate reader, and the absorbance was read at 450 nm.
The inhibition rate was calculated according to the following formula: […]
ODcmpd: compound absorbance; ODpositive: average value of the absorbance of positive control without compound; ODvehicle: average value of the absorbance of solvent vehicle control.
IC50 values were fitted using GraphPad 7.0 based on inhibition rates of compounds at different concentrations.

[6] = target: CDK1/CycE1 (Homo sapiens, UniProt P06493); assay: ADP-Glo kinase assay on CDK enzymatic activity, CDK1/CycE1; assay type: biochemical; conditions: ADP-Glo; 10 concentrations from 10 μM, 4-fold; 60 min room temperature; read-out: CDK1/CycE1/nM (IC50)
How it was run: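 Compounds in 10-point 4-fold dilutions from 10 μM final, preincubated 10 min with kinase, then substrate/ATP added; 60 min reaction at room temperature. ADP-Glo luminescence read.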

Chain of CDK3/CycE1 (Q00526 whole entry, species assumed): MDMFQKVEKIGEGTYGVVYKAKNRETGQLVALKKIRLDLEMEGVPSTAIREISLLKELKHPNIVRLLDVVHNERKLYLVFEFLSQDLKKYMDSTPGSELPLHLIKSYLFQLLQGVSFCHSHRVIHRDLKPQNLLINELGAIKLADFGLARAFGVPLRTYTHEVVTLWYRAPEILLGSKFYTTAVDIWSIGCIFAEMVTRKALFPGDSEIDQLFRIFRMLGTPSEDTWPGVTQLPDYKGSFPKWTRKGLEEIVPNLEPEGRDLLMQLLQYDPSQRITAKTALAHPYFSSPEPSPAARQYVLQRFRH
Chain of CDK3/CycE1 (P24864 whole entry partner, species assumed): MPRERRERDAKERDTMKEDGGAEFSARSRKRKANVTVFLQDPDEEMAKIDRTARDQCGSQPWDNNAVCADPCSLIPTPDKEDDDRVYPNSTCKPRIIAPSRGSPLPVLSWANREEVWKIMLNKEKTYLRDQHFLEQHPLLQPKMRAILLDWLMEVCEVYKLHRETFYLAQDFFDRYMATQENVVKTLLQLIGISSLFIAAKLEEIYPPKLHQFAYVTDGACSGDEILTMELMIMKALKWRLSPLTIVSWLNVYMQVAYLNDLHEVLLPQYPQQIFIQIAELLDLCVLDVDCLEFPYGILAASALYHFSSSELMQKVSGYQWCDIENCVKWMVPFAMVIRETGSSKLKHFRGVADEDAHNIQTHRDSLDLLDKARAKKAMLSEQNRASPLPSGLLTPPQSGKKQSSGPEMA
Chain of CDK1/CycE1 (P06493 whole entry, species assumed): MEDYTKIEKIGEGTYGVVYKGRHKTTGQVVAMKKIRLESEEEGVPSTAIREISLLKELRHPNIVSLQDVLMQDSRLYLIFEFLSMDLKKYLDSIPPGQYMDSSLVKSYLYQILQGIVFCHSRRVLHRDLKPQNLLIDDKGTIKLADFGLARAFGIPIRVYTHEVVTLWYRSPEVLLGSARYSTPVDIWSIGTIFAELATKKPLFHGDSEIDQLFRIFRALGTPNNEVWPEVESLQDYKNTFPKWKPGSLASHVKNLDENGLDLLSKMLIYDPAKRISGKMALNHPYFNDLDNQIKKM
Chain of CDK1/CycE1 (P24864 whole entry partner, species assumed): as the sequence (P24864 whole entry partner, species assumed) above
Chain of CDK5/p25NCK (Q00535 whole entry, species assumed): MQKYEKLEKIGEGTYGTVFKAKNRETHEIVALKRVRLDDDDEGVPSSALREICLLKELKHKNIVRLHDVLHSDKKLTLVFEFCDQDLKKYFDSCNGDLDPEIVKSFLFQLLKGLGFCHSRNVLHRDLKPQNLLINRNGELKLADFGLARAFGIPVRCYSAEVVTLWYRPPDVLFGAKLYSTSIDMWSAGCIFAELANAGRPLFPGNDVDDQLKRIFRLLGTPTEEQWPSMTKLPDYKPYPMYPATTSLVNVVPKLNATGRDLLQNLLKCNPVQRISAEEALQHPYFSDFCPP
Chain of CDK5/p25NCK (Q15078 99-307 partner limits assumed, species assumed): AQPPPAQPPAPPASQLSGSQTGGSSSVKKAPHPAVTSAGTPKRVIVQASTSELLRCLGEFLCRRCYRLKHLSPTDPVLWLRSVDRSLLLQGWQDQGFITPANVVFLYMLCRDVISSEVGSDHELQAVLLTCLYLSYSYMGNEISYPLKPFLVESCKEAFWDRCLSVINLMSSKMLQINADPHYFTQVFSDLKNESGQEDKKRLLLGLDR
Chain of CDK9/CycT1 (P50750 whole entry): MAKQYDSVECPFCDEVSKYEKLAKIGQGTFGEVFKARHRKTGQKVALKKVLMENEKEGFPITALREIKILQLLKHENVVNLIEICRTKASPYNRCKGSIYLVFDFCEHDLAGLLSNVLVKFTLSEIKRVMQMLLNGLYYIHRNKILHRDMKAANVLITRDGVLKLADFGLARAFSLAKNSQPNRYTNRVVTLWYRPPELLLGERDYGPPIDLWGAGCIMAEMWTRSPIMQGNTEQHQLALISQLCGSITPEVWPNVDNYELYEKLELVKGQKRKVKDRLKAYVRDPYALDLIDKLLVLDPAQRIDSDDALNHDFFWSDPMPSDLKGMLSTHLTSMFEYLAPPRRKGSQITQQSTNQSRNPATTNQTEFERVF
Chain of CDK9/CycT1 (O60563 whole entry partner): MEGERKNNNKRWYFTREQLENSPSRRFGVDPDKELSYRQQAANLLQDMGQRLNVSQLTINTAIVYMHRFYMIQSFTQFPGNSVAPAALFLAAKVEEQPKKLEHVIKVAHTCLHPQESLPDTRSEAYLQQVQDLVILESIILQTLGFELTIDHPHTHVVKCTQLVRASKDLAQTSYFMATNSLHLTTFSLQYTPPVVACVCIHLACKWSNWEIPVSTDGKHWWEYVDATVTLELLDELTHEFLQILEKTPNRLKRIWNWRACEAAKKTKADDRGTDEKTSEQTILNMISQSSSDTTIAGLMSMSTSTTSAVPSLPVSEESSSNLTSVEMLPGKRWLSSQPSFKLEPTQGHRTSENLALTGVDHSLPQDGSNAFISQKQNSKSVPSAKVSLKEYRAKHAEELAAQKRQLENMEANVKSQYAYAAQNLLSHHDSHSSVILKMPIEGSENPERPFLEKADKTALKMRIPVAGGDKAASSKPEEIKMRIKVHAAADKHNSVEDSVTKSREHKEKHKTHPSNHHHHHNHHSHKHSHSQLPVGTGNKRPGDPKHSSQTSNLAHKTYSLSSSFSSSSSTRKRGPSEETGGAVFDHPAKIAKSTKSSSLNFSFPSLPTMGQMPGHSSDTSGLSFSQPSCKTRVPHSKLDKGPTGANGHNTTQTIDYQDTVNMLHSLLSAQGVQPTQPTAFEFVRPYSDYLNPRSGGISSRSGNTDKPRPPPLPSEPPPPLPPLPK

| SMILES | IC50 [1] [nM] | IC50 [2] [nM] | IC50 [3] [nM] | IC50 [4] [nM] | IC50 [5] [µM] | IC50 [6] [nM] |
| --- | --- | --- | --- | --- | --- | --- |
| CC(=O)N[C@@H]1CCC[C@H](C(=O)Nc2cc3c(NC(C)(C)C)nc(C#N)cc3cn2)C1 [Compound 15, (1S,3R)-3-acetamido-N-(5-(tert-butylamino)-7-cyano-2,6-naphthyridin-3-yl)cyclohexane-1-carboxamide] | 1 | 182 | 273 | 770 | 0.4 to 1 |  |
| CC(=O)N[C@@H]1CCC[C@H](C(=O)Nc2cc3c(NC4CC4)nc(C#N)cc3cn2)C1 [Compound 16, (1S,3R)-3-acetamido-N-(7-cyano-5-(cyclopropylamino)-2,6-naphthyridin-3-yl)cyclohexane-1-carboxamide] | 20 | 1460 | 951 | 2500 | > 1 |  |
| CC(=O)N[C@@H]1CCC[C@H](C(=O)Nc2cc3c(NC4(C)CC4)nc(C#N)cc3cn2)C1 [Compound 17, (1S,3R)-3-acetamido-N-(7-cyano-5-((1-methylcyclopropyl)amino)-2,6-naphthyridin-3-yl)cyclohexane-1-carboxamide] | 4 | 279 | 750 | 664 | 0.4 to 1 |  |
| CC(=O)N[C@@H]1CCC[C@H](C(=O)Nc2cc3c(NC(CCO)CCO)nc(C#N)cc3cn2)C1 [Compound 18, (1S,3R)-3-acetamido-N-(7-cyano-5-((1,5-dihydroxypentan-3-yl)amino)-2,6-naphthyridin-3-yl)cyclohexane-1-carboxamide] | 15 | 3370 | > 10000 | > 10000 | > 1 |  |
| CC(=O)N[C@@H]1CCC[C@H](C(=O)Nc2cc3c(N4CC[C@@H](O)C4)nc(C#N)cc3cn2)C1 [Compound 19, (1S,3R)-3-acetamido-N-(7-cyano-5-((R)-3-hydroxypyrrolidin-1-yl)-2,6-naphthyridin-3-yl)cyclohexane-1-carboxamide] | 26 | 2370 | 1470 | 6080 | > 1 |  |
| CC(=O)N[C@@H]1CCC[C@H](C(=O)Nc2cc3c(N4CC[C@@H](N)C4)nc(C#N)cc3cn2)C1 [Compound 20, (1S,3R)-3-acetamido-N-(5-((R)-3-aminopyrrolidin-1-yl)-7-cyano-2,6-naphthyridin-3-yl)cyclohexane-1-carboxamide] | 11 | 2150 | 1750 | 4320 | > 1 |  |
| CC(=O)N[C@@H]1CCC[C@H](C(=O)Nc2cc3c(N4CC[C@@](C)(O)C4)nc(C#N)cc3cn2)C1 [Compound 22, (1S,3R)-3-acetamido-N-(7-cyano-5-((R)-3-hydroxy-3-methylpyrrolidin-1-yl)-2,6-naphthyridin-3-yl)cyclohexane-1-carboxamide] | 17 | 4510 | 1910 | > 10000 | 0.4 to 1 |  |
| CC(=O)N[C@@H]1CCC[C@H](C(=O)Nc2cc3c(N4CCC(F)(F)CC4)nc(C#N)cc3cn2)C1 [Compound 23, (1S,3R)-3-acetamido-N-(7-cyano-5-(4,4-difluoropiperidin-1-yl)-2,6-naphthyridin-3-yl)cyclohexane-1-carboxamide] | 38 | 3870 | 5650 | > 10000 | > 1 |  |
| CC(=O)N[C@H]1CCC[C@H](C(=O)Nc2cc3c(NC(C)C)nc(C#N)cc3cn2)C1 [Compound 25, (1S,3S)-3-acetamido-N-(7-cyano-5-(isopropylamino)-2,6-naphthyridin-3-yl)cyclohexane-1-carboxamide] | 12 | 521 | 602 | 1210 | 0.4 to 1 |  |
| CC(C)Nc1nc(C#N)cc2cnc(NC(=O)[C@H]3CCC[C@H](N)C3)cc12 [Compound 27, (1S,3S)-3-amino-N-(7-cyano-5-(isopropylamino)-2,6-naphthyridin-3-yl)cyclohexane-1-carboxamide] | 51 | 2520 | 1630 | 3960 | 0.4 to 1 |  |
| CC(C)Nc1nc(C#N)cc2cnc(N[C@H]3CCNC3)cc12 [Compound 31, (S)-1-(isopropylamino)-7-(pyrrolidin-3-ylamino)-2,6-naphthyridine-3-carbonitrile] | 4 | 594 | 1300 | 1480 | 0.4 to 1 |  |
| CN[C@@H]1CC[C@H](Nc2cc3c(NC(C)C)nc(C#N)cc3cn2)C1 [Compound 32, 1-(isopropylamino)-7-(((1S,3R)-3-(methylamino)cyclopentyl)amino)-2,6-naphthyridine-3-carbonitrile] | 7 | 1080 | 2050 | 1580 | 0.4 to 1 |  |
| CC(C)Nc1nc(C#N)cc2cnc(N[C@H]3CCC[C@@H](O)C3)cc12 [Compound 41, 7-(((1S,3R)-3-hydroxycyclohexyl)amino)-1-(isopropylamino)-2,6-naphthyridine-3-carbonitrile] | 6 |  | 90 |  | > 1 |  |
| CC(C)Nc1nc(C#N)cc2cnc(N[C@H]3CCC(=O)NC3)nc12 [Compound 106, (S)-8-(isopropylamino)-2-((6-oxopiperidin-3-yl)amino)pyrido[3,4-d]pyrimidine-6-carbonitrile] | 4 |  | 29 |  | 0.4 to 1 | 26 |
| N#Cc1cc2cnc(N[C@H]3CCCNC3)cc2c(C2CCCCC2)n1 [Compound 193, (S)-1-cyclohexyl-7-(piperidin-3-ylamino)-2,6-naphthyridine-3-carbonitrile] | 5 | 679 |  |  | 0.4 to 1 | 398 |
| CC(C)Oc1nc(C#N)cc2cnc(N[C@H]3C[C@@H](N)C3)cc12 [Compound 195, 7-(((1s,3s)-3-aminocyclobutyl)amino)-1-isopropoxy-2,6-naphthyridine-3-carbonitrile] | 2 | 540 |  |  | 0.4 to 1 | 14 |
| C[C@]1(N)C[C@H](Nc2cc3c(NC4CC4)nc(C#N)cc3cn2)C1 [Compound 210, 7-((trans)-3-amino-3-methylcyclobutyl)amino-1-(cyclopropylamine)-2,6-naphthyridine-3-carbonitrile] | 12 |  |  |  | 0.4 to 1 |  |
| CC(C)(C)Nc1nc(C(F)F)cc2cnc(N[C@H]3[C@@H]4CNC[C@@H]43)nc12 [Compound C4, N^2-((1R,5S,6s)-3-azabicyclo[3.1.0]hexan-6-yl)-N^8-(tert-butyl)-6-(difluoromethyl)pyrido[3,4-d]pyrimidine-2,8-diamine] | 9 |  |  |  | 0.4 to 1 |  |
| CC(C)Nc1nc(C#N)cc2cnc(N[C@@H]3CCCCNC3)nc12 [Compound C5, (R)-2-(azepan-3-ylamino)-8-(isopropylamino)pyrido[3,4-d]pyrimidine-6-carbonitrile] | 50 |  |  |  | 0.4 to 1 |  |
| CC(C)Nc1nc(C#N)cc2cnc(N[C@]3(C)C[C@@H](O)C3)nc12 [Compound C10, 2-(((1r,3r)-3-hydroxy-1-methylcyclobutyl)amino)-8-(isopropylamino)pyrido[3,4-d]pyrimidine-6-carbonitrile] | 8 |  |  |  | > 1 |  |
| CC(C)(C)Nc1nc(C(N)=O)cc2cnc(N[C@H]3C[C@H](N)C3)nc12 [Compound C19, 2-(((1r,3r)-3-aminocyclobutyl)amino)-8-(tert-butylamino)pyrido[3,4-d]pyrimidine-6-carboxamide] | 10 |  |  |  | 0.4 to 1 |  |
| CC(C)Nc1nc(C#N)cc2cnc(N[C@]3(C)C[C@@H](N)C3)nc12 [Compound C27, 2-(((1r,3r)-3-amino-1-methylcyclobutyl)amino)-8-(isopropylamino)pyrido[3,4-d]pyrimidine-6-carbonitrile] | 19 |  |  |  | > 1 |  |
| CC(C)Nc1nc(C#N)cc2cnc(N[C@H]3C[C@@H](CO)C3)nc12 [Compound C29, 2-(((1s,3s)-3-(hydroxymethyl)cyclobutyl)amino)-8-(isopropylamino)pyrido[3,4-d]pyrimidine-6-carbonitrile] | 3 | 35 |  |  | 0.4 to 1 | 51 |
| CC(=O)N1CCN([C@H]2C[C@@H](Nc3ncc4cc(C#N)nc(NC(C)C)c4n3)C2)CC1 [Compound C33, 2-(((1s,3s)-3-(4-acetylpiperazin-1-yl)cyclobutyl)amino)-8-(isopropylamino)pyrido[3,4-d]pyrimidine-6-carbonitrile] | 19 |  |  |  | > 1 |  |
